Laboratory results from patent US20050002983A1, “Devices, methods, and compositions to prevent restenosis” (priority 2003, published 2005).

Columns and labels:
[1] = system: Human aortic smooth muscle cells; assay: IC50 by CellTiter-Glo Luminescent Cell Viability Assay, smooth muscle cells; type: cell-based
Protocol: The cells were seeded in duplicate, in opaque-walled 96-well microtiter plates at a cell density of 3,000 cells per well and allowed to attach overnight. Serial dilutions of each drug were added, and the cells were incubated for 96 hours. The IC50 values for the drugs was determined using the CellTiter-Glo Luminescent Cell Viability Assay (Promega, Madison, Wis.), which correlates with the number of live cells.

endothelial cells = assay: Cytotoxicity IC50 against endothelial cells; type: cell-based
Solubility in PBS = type: physicochemical
[2] = system: Human aortic smooth muscle cells (AoSMCs); assay: MTS cell viability/proliferation assay, AoSMC, Days 0-5; details: for dose-response of cell viability (optical density): 10, 100, 1,000 nM, SMCs and HUVECs, Days 0-5
Protocol: Human aortic smooth muscle cells (“AoSMCs”) and human umbilical vein endothelial cells (“HUVECs”) were plated on 96-well culture plates at a density of about 10,000 cells per square centimeter (10,000 cells/cm^2). The density was determined using growth curves determined by calculating the average absolute optical densities (“ODs”, defined as cellular OD—media only OD) for each plating concentration, for each day, and each cell type (AoSMC or HUVEC) over a five-day time period.
Prior to experiments, the AoSMCs and HUVECS were thawed and independently propagated through two- or three population doublings following Clonetics recommendations and standard cell culture techniques. Clonetics Growth Media and Reagents were used without alteration in all aspects of the study described herein unless otherwise noted. […] SMGM contained: 500 ml SMBM-2 basal media, 5% FBS, and all recommended singlequot growth supplements (provided with SMGM-2 bulletkit) ECGM contained: 500 ml EBM basal media, 2% FBS, and all recommended singlequot growth supplements (provided with EGM-bulletkit).
After initial plating all 96-well plates were placed in a standard 37° C., 5% CO2 incubator. Conditions, including media, were not changed except as detailed below. For consecutive 24-hour time-periods, from Day 1 to Day 5, a single 96-well plate was removed from the incubator.
Cell Preparation Source cells were selected at 70-80% confluency of the second or third population doubling since initial thaw. In order to synchronize cell cycle, source cells were changed from standard growth media to media containing 1% serum twenty-four hours prior to experiment (other growth factors were unchanged). On Day 0 of the experiment, source cells were removed from culture dishes by trypsinization (0.05×1 min.-2 min), quantified by hemacytometer after centrifuge (800 RPM×5 min.), and re-suspended in media to obtain a stock solution of about 25,000 cells/ml.
The drugs were dissolved in dimethylsulfoxide (“DMSO”) solvent to make stock solutions, which were then diluted serially in media to three study concentrations (10 nM; 100 nM; and 1,000 nM). The drugs at three concentration each, solvent without drug at three concentrations, and standard media were added independently to cells on the first day of the study only. Cells in two columns (16 wells) for each cell type on each day will not receive drug and serve as internal controls. Cellular viability and proliferation was assessed using the MTS assay for each cell type at each of the six time points.
On Day 1, six hours after initial plating, the media was removed from all wells by vacuum suction; and with the appropriate growth media-drug solution for each of three drugs at three concentrations described above was added to the wells. […]

[3] = Release kinetics of epothilone D from polymer matrices; type: physicochemical

C=CCNC1=C2C[C@@H](C)C[C@H](OC)[C@H](O)[C@@H](C)/C=C(\C)[C@H](OC(N)=O)[C@@H](OC)/C=C\C=C(/C)C(=O)NC(=CC1=O)C2=O [17-AAG, 17-allylamino-17-desmethoxygeldanamycin]
IC50 ([1]; smooth muscle cells): ~10 nM | IC50 (endothelial cells): 350 nM | solubility (Solubility in PBS): 60 micrograms/mL | dose-response of cell viability (optical density) [2]: dose-response characteristics consistent with utility to reduce or prevent restenosis

CO[C@H]1/C=C\C=C(/C)C(=O)NC2=CC(=O)C(NCCN(C)C)=C(C[C@@H](C)C[C@H](OC)[C@H](O)[C@@H](C)/C=C(\C)[C@@H]1OC(N)=O)C2=O [17-DMAG, 17-[2-(dimethylamino)ethylamino]-17-desmethoxygeldanamycin]
dose-response of cell viability (optical density) [2]: dose-response characteristics consistent with utility to reduce or prevent restenosis | selectivity for SMCs over ECs ([2]; AoSMC vs HUVEC viability, 10-1,000 nM): relative selectivity for SMCs over ECs

C/C1=C/C[C@@H](/C(C)=C/c2csc(C)n2)OC(=O)C[C@H](O)C(C)(C)C(=O)[C@H](C)[C@@H](O)[C@@H](C)CCC1 [epothilone D]
release rate from polymer matrix ([3]; from poly(lactide)): approximately 6 micrograms/day | release rate from polymer matrix ([3]; from polyurethane): 1.58 micrograms/day | dose-response of cell viability (optical density) [2]: dose-response characteristics consistent with utility to reduce or prevent restenosis

COC1=C2C[C@@H](C)C[C@H](OC)[C@H](O)[C@@H](C)/C=C(\C)[C@H](OC(N)=O)[C@@H](OC)/C=C\C=C(/C)C(=O)NC(=CC1=O)C2=O [geldanamycin, reference compound]
IC50 ([1]; Homo sapiens): ~0.9 nM
